{
  "source": "paper PMC7754465",
  "about": "“Multiparameter Kinetic Analysis for Covalent Fragment Optimization by Using Quantitative Irreversible Tethering (qIT)” (Chembiochem, 2020)",
  "key": {"[1]": {"molecular_target": "T1, Cdk2(ES) = Cdk2(F80C,C177A) (Homo sapiens, UniProt P24941, C177A/F80C)", "T1 construct": "GST (N, cleaved yes); made in house; host or cells: E. coli Tuner(DE3)", "experiment": "quantitative irreversible tethering (qIT): rate of cysteine modification of Cdk2(ES)", "assay_type": "binding", "conditions": "for kinact/KI at 500 µM: Cdk2(ES) 5 μM, read-out: Cdk2(ES): kobs/[I]; for covalent SAR by REF-based qIT analysis: compared with acrylamide 1 or parent analogue", "method": "(§1) Figure 2 Comparison of previous and current applications of Quantitative irreversible tethering (qIT). a) Overview of rate determination. A cysteine‐containing biomolecule is treated with covalent fragments under pseudo‐first‐order conditions. Reaction progress is followed by discrete measurement of free cysteine concentration by using the fluorogenic probe CPM, and rate constants (k obs) are derived from exponential regression analysis. b) Comparison of the reactivity profile of each fragment with the POI and GSH typically classes them as unreactive, reactive but non‐selective or reactive and selective. c) Quantification of kinetic POI/GSH selectivity facilitates hit identification. d) The observed rate of reaction between the POI and hit fragment is determined at a range of ligand concentrations by using qIT. Subsequent hyperbolic regression analysis is used to derive K i and k inact to facilitate comprehensive covSAR analysis.\nTherefore, we set out to develop novel classes of electrophile sensitive kinase inhibitors using a covalent fragment approach. Accordingly, we screened a 138‐member library of diverse cysteine‐reactive fragments at 500 μM against Cdk2(ES) and GSH by using the qIT platform and monitored the kinetics of cysteine‐modification over 24 hours. […] Using three standard deviations over the geometric mean REF as the statistical cut‐off for defining hit fragments (REF >27.9) yielded two acrylamide fragments, tetrahydroquinoline 1 (REF=81) and pyrimidine S1 (REF=64) for further investigation (Figures 3c and S2). […]\nD. Rate determination by qIT\nReaction-plate setup: Each well of a 96-well PCR plate was charged with 60–100 µL of target thiol (GSH or protein, 10 µM) and 4% w/v TCEP-agarose beads in 100 mM phosphate buffer (pH 7.5 or 8) and cooled to 4 °C. Reactions were started by addition of an equal volume of pre-cooled electrophile solution (1 mM, 2% DMSO) in 0.1 M phosphate buffer (final concentra-tion: thiol = 5 µM, electrophile = 0.5 mM, 2% w/v TCEP-agarose beads), with a minimum of 4 wells per plate used as DMSO/thiol only controls. After mixing, TCEP-agarose was pelleted by centrifugation (1,300 rpm, 1 min) and the plate incu-bated at 4 °C. CPM Quench: At a series of time points (typically around 0.25, 0.5, 1, 2, 6, 24, 48, 72 and 120 hours after reac-tion initiation), 3 µL aliquots of each reaction were quenched into a 384-well fluorescence plate (Corning – black, NBS) where each well was charged with 27 µL of CPM solution (1.39 µM) in 100 mM phosphate buffer (pH 7.5) (final concentration: thiol = 0.5 µM, CPM = 1.25 µM). Quenching was typically performed in duplicate and fluorescence plates were incubated at room temperature for 60 minutes before fluorescence intensity (excitation/emission: 384/470 nm) was measured on an EnVisionTM plate reader. Analysis: All analysis was performed using Prism 8.0 software (GraphPad). For each time point, the fluorescence of each reaction was normalized relative Cdk2(ES)/GSH only control = maximum signal, DMSO only = minimum signal. The normalized fluorescence for each reaction was plotted against time. A one phase exponential decay was fitted to each plot (Constraints: Y(0) > 0.8; 0 < plateau = 0), yielding a pseudo first-order rate constant.\nCdk2 mutations were introduced by PCR and cloned into pGEX6P1 Cdk2 (552), a gift from Jonathon Pines (Addgene plasmid # 61845) used to express GST-Cdk2(WT). GST-Cdk2(ES) = GST-Cdk2(F80C,C177A). All constructs were verified by se-quencing. pGEX6P1 cyclin A2 (amino acids 173-432) was generated by PCR and restriction digestion. GST-CAK1 was con-structed by PCR amplification of S.cerevisiae genomic DNA and the product cloned into pKEG-KG. All protein expression was performed using an adapted autoinduction protocol:[8] Plasmids were transformed into E. coli Tuner(DE3) and cultures grown in autoinduction media at 37 °C until OD600 = 0.9. The cultures were then incubated at 18 °C for a further 40 hours before […]"}, "[2]": {"experiment": "qIT: rate of reaction with glutathione (intrinsic reactivity)", "assay_type": "physicochemical", "conditions": "fragment 0.5 mM, glutathione 5 μM", "method": "Previously we described a fluorescence‐based platform for screening cysteine‐targeting covalent fragments called quantitative irreversible tethering (qIT). ^[19] The method measures and compares the rate of reactions of individual fragments with the protein‐of‐interest (POI) and GSH (Figure 2a and b).\nas §1, with “covSAR analysis. […]” for “covSAR analysis.”"}, "Cdk2(ES)": {"molecular_target": "T2, Cdk2(ES) (Homo sapiens, UniProt P24941, C177A/F80C)", "T2 construct": "GST (N, cleaved yes); made in house; host or cells: E. coli Tuner(DE3)", "experiment": "concentration-dependent qIT with hyperbolic regression (Ki, kinact)", "assay_type": "binding", "conditions": "for kinact/KI / Ki / kinact: acrylamide 25-500 μM, Cdk2(ES) 5 μM; for Ki / kinact: hyperbolic fit of kobs", "method": "Next we sought to carry out comprehensive kinetic analysis of the covalent binding to better understand the covSAR trends. Accordingly, the concentration dependency for the rate of reaction between Cdk2(ES) and key acrylamides 1, 6, 9 and 11 were determined using qIT (Figure 7c). To maintain pseudo‐first‐order reaction kinetics and stay within the solubility limits of the fragments, ligands were titrated from 25 to 500 μM. […] Indeed, comparing the binding conformations of the merged (9 and 11) and parent (1 and 6) fragments, we observe a subtle shift in the position of the core scaffolds and the orientation of the acrylamide link that likely explains the jump in potency that resulted from fragment merging. Overall, comparing acrylamides 9 and 11, we observe in a 3.7‐fold increase in k inact/K i and a 4.3‐fold increase in REF, and the consistency between these two orthogonal metrics of covalent fragment potency is encouraging for future applications of qIT to covalent fragment optimization.\nH. Intact-protein mass spectrometry\nProtein-mass data were obtained on a Waters micromass LC-TOF mass spectrometer in positive ion mode using electrospray ionization. Samples were chromatographed using an Acquity UPLC protein BEH C4 column (2.1 mm × 50 mm, 2.7 µm) with a flow rate of 30 µL/min. The injection volume was 5 µL of protein solution (5 µM) in 30 mM ammonium bicarbonate buffer con-taining 0.5% formic acid and 20% MeOH. The gradient used was 100% mobile phase A (0.1% formic acid in water/MeOH (19:1)) ramping linearly to 90% mobile phase B (0.1% formic acid in MeOH) over 5 minutes. The spectra were acquired from 500 to 2500 Da and deconvolution was performed with MassLynx (Waters), using the maximum entropy algorithm, over a mass range of […] with a mass step of 0.75. […]\nCdk2(WT) or Cdk2(ES) (1 mg) was sequentially incubated with aliquots of CAK1 (3 × 0.05 mg) at r.t. for 4 hours at a time in 1.5 mL of a 30 mM Tris/HCl buffer (pH 7.5) containing 10 mM MgCl2, 10 mM ATP and 3 mM DTT. As CAK1 appeared to be-come rapidly inactivated in the presence of pCdk2, three repetitions were required to drive the reaction to completion. The resulting solution was incubated with 50 µL of glutathione-Sepharose beads and filtered to remove remaining CAK1.\nKinase assays were performed by coupling the conversion of ATP into ADP to the oxidation of NADH (Abs = 340 nm) into NAD+, mediated by lactate dehydrogenase (LDH) and pyruvate kinase (PK). WT, mutant or ligand-conjugated pCdk2 (12.5 or 50 nM) was preincubated with Cyclin A2 (20 nM) in a buffer containing 50 mM Tris/HCl, 10 mM MgCl2, 5 mM DTT, 1 mM phosphoenolpyruvate, 0.24 mM NADH, 10 U mL-1 LDH, 14 U mL-1 PK and 5% DMSO at 37 °C for 30 minutes. Reactions were initiated by addition of 0.5 mM ATP and 0.24 mM substrate peptide (PKTPKKAKKL) and the absorbance at 340 nm was moni-tored for two hours. Assays were conducted at 37 °C and carried out in clear 384-well plates (Nunc) using a SpectraMax i3x plate reader (Molecular Devices) with a final volume of 20 µL in each well. After plotting Abs 340 against time, enzyme velocity was measured from the gradient during the linear phase of product accumulation.\nQ. Concentration dependent qIT\nThe rate of reaction (kobs) for the reaction between each acrylamide (25, 50, 125, 250 and 500 µM) with Cdk2(ES) (5 µM) was determined us qIT (see D. Rate Determination by qIT) in duplicate. The average kobs was plotted against acrylamide concen-tration and hyperbolic regression analysis performed using Prism 8.0 software (GraphPad) to derive kinact and Ki."}, "[3]": {"conditions": "acrylamide 11 compared with acrylamide 9"}},
  "data": [
    {"smiles": "C=CC(=O)N1CCn2c1nc1ccccc12", "note": "[compound 2]", "values": [
      {"measurement": "kinact/KI at 500 µM", "setting": "[1]; fragment 0.5 mM", "result": 0.68, "unit": "M⁻¹ s⁻¹"},
      {"measurement": "GSH: kobs/[I]", "setting": "[2]", "result": 5.34, "unit": "M⁻¹ s⁻¹"}
    ]},
    {"smiles": "C=CC(=O)N1CCCc2cc(C(=O)O)ccc21", "note": "[compound 3]", "values": [
      {"measurement": "covalent SAR by REF-based qIT analysis", "setting": "[1]", "result": "complete loss of activity"}
    ]},
    {"smiles": "C=CC(=O)N1CCCc2cc(C(N)=O)ccc21", "note": "[compound 4]", "values": [
      {"measurement": "covalent SAR by REF-based qIT analysis", "setting": "[1]", "result": "complete loss of activity"}
    ]},
    {"smiles": "C#CCNC(=O)c1ccc2c(c1)CCCN2C(=O)C=C", "note": "[compound 5]", "values": [
      {"measurement": "covalent SAR by REF-based qIT analysis", "setting": "[1]", "result": "well tolerated"}
    ]},
    {"smiles": "C=CC(=O)N1CCN(C(C)=O)c2ccccc21", "note": "[compound 7]", "values": [
      {"measurement": "covalent SAR by REF-based qIT analysis", "setting": "[1]", "result": "loss of activity"}
    ]},
    {"smiles": "C=CC(=O)N1CCc2cc(C(=O)OC)ccc21", "note": "[compound 8]", "values": [
      {"measurement": "covalent SAR by REF-based qIT analysis", "setting": "[1]", "result": "tenfold loss in REF"}
    ]},
    {"smiles": "C=CC(=O)N1CCN(CC)c2cc(C(=O)OC)ccc21", "note": "[compound 9]", "values": [
      {"measurement": "kinact/KI at 500 µM", "setting": "[1]; fragment 0.5 mM", "result": 8.48, "unit": "M⁻¹ s⁻¹"},
      {"measurement": "rate of reaction with Cdk2(ES) relative to acrylamide 1", "setting": "[1]; qIT", "result": "six times faster than acrylamide 1"},
      {"measurement": "rate enhancement factor (REF)", "setting": "[1]; rate with Cdk2(ES) relative to rate with GSH, fragment 0.5 mM, thiol 5 μM", "result": 182},
      {"measurement": "kinact/KI", "setting": "Cdk2(ES)", "result": 4.76, "unit": "M⁻¹ s⁻¹"},
      {"measurement": "Ki", "setting": "Cdk2(ES)", "result": 416, "unit": "µM"},
      {"measurement": "kinact", "setting": "Cdk2(ES)", "result": 0.00198, "unit": "s⁻¹"}
    ]},
    {"smiles": "C=CC(=O)N1CCN(C)c2cc(C(=O)OC)ccc21", "note": "[compound 10]", "values": [
      {"measurement": "covalent SAR by REF-based qIT analysis", "setting": "[1]", "result": "less Cdk2(ES) selective"},
      {"measurement": "kinact/KI at 500 µM", "setting": "[1]; fragment 0.5 mM", "result": 1.91, "unit": "M⁻¹ s⁻¹"}
    ]},
    {"smiles": "C=CC(=O)N1CCN(CC2CC2)c2cc(C(=O)OC)ccc21", "note": "[compound 11]", "values": [
      {"measurement": "fold increase in REF", "setting": "[1]; [3]", "result": 4.3, "unit": "fold"},
      {"measurement": "covalent SAR by REF-based qIT analysis", "setting": "[1]", "result": "significant improvement in REF"},
      {"measurement": "kinact/KI at 500 µM", "setting": "[1]; fragment 0.5 mM", "result": 19.5, "unit": "M⁻¹ s⁻¹"},
      {"measurement": "fold increase in kinact/Ki", "setting": "Cdk2(ES); [3]", "result": 3.7, "unit": "fold"},
      {"measurement": "kinact/KI", "setting": "Cdk2(ES)", "result": 17.7, "unit": "M⁻¹ s⁻¹"},
      {"measurement": "Ki", "setting": "Cdk2(ES)", "result": 102, "unit": "µM"},
      {"measurement": "kinact", "setting": "Cdk2(ES)", "result": 0.00181, "unit": "s⁻¹"}
    ]}
  ]
}
